Measurements published in PubChem BioAssay AID1918938 (Molecular Pharmacology Branch, DTP, NCI, 2023).
pIC50: −log10 of the molar value.

Tested on: 556581-035-R-J1-PDC complex spheroid viability
Assay: Anticancer human tumor 556581-035-R-J1-PDC patient-derived ovarian carcinoma cell line growth inhibition
Conditions: for pIC50: curve of first compound; for viability, T/C: stronger effect = lower value
Procedure, shortened: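 Multicellular complex spheroids of tumor cells with human endothelial cells (HUVEC) and mesenchymal stem cells; the LSD1 inhibitor iadademstat was combined with standard-of-care or investigational agents. Top concentration at or near clinical Cmax, half-log dilutions; final DMSO ≤0.25%.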

[1] = second compound 0.1 µM, first compound 0.0316 µM
[2] = second compound 0.1 µM, first compound 0.1 µM
[3] = second compound 0.1 µM, first compound 0.316 µM
[4] = second compound 0.1 µM, first compound 1 µM
[5] = second compound 0.316 µM, first compound 0.0316 µM
[6] = second compound 0.316 µM, first compound 0.1 µM
[7] = second compound 0.316 µM, first compound 0.316 µM
[8] = second compound 0.316 µM, first compound 1 µM
[9] = second compound 1 µM, first compound 0.0316 µM
[10] = second compound 1 µM, first compound 0.1 µM
[11] = second compound 1 µM, first compound 0.316 µM
[12] = second compound 1 µM, first compound 1 µM
[13] = second compound 3.16 µM, first compound 0.0316 µM
[14] = second compound 3.16 µM, first compound 0.1 µM
[15] = second compound 3.16 µM, first compound 0.316 µM
[16] = second compound 3.16 µM, first compound 1 µM
[17] = second compound 10 µM, first compound 0.0316 µM
[18] = second compound 10 µM, first compound 0.1 µM
[19] = second compound 10 µM, first compound 0.316 µM
[20] = second compound 10 µM, first compound 1 µM
[21] = second compound 0.1 µM, first compound 0.00316 µM
[22] = second compound 0.1 µM, first compound 0.01 µM
[23] = second compound 0.316 µM, first compound 0.00316 µM
[24] = second compound 0.316 µM, first compound 0.01 µM
[25] = second compound 1 µM, first compound 0.00316 µM
[26] = second compound 1 µM, first compound 0.01 µM
[27] = second compound 3.16 µM, first compound 0.00316 µM
[28] = second compound 3.16 µM, first compound 0.01 µM
[29] = second compound 10 µM, first compound 0.00316 µM
[30] = second compound 10 µM, first compound 0.01 µM
[31] = second compound 0.1 µM, first compound 0.00949 µM
[32] = second compound 0.1 µM, first compound 0.03 µM
[33] = second compound 0.1 µM, first compound 0.0949 µM
[34] = second compound 0.1 µM, first compound 0.3 µM
[35] = second compound 0.316 µM, first compound 0.00949 µM
[36] = second compound 0.316 µM, first compound 0.03 µM
[37] = second compound 0.316 µM, first compound 0.0949 µM
[38] = second compound 0.316 µM, first compound 0.3 µM
[39] = second compound 1 µM, first compound 0.00949 µM
[40] = second compound 1 µM, first compound 0.03 µM
[41] = second compound 1 µM, first compound 0.0949 µM
[42] = second compound 1 µM, first compound 0.3 µM
[43] = second compound 3.16 µM, first compound 0.00949 µM
[44] = second compound 3.16 µM, first compound 0.03 µM
[45] = second compound 3.16 µM, first compound 0.0949 µM
[46] = second compound 3.16 µM, first compound 0.3 µM
[47] = second compound 10 µM, first compound 0.00949 µM
[48] = second compound 10 µM, first compound 0.03 µM
[49] = second compound 10 µM, first compound 0.0949 µM
[50] = second compound 10 µM, first compound 0.3 µM
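Note: spheroids exposed to agents for seven days.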
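Throughout, for viability, T/C: 100% = DMSO vehicle control wells.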

CC(C)c1c(-c2ccccc2)nc2c(C#N)c[nH]n2c1=O + NC1CC1c1ccc(-c2cccc(O)c2)cc1
pIC50 (second compound 0.1 µM): < 5.00
pIC50 (second compound 0.316 µM): < 5.00
pIC50 (second compound 1 µM): < 5.00
pIC50 (second compound 3.16 µM): < 5.00
pIC50 (second compound 10 µM): < 5.00
viability, T/C [1]: 100%
viability, T/C [2]: 103%
viability, T/C [3]: 95.8%
viability, T/C [4]: 89.3%
viability, T/C (second compound 0.1 µM, first compound 3.16 µM): 88.8%
viability, T/C (second compound 0.1 µM, first compound 10 µM): 64%
viability, T/C [5]: 90.6%
viability, T/C [6]: 82.5%
viability, T/C [7]: 86.4%
viability, T/C [8]: 85.2%
viability, T/C (second compound 0.316 µM, first compound 3.16 µM): 73.6%
viability, T/C (second compound 0.316 µM, first compound 10 µM): 79.9%
viability, T/C [9]: 96.4%
viability, T/C [10]: 101%
viability, T/C [11]: 79.7%
viability, T/C [12]: 76.5%
viability, T/C (second compound 1 µM, first compound 3.16 µM): 69.8%
viability, T/C (second compound 1 µM, first compound 10 µM): 60.2%
viability, T/C [13]: 85.6%
viability, T/C [14]: 82.5%
viability, T/C [15]: 84.8%
viability, T/C [16]: 86.7%
viability, T/C (second compound 3.16 µM, first compound 3.16 µM): 77.9%
viability, T/C (second compound 3.16 µM, first compound 10 µM): 69.3%
viability, T/C [17]: 92.6%
viability, T/C [18]: 91.2%
viability, T/C [19]: 89.4%
viability, T/C [20]: 75.4%
viability, T/C (second compound 10 µM, first compound 3.16 µM): 66.1%
viability, T/C (second compound 10 µM, first compound 10 µM): 59.6%

CC[C@@]1(O)C(=O)OCc2c1cc1n(c2=O)Cc2cc3c(CN(C)C)c(O)ccc3nc2-1 + NC1CCC(NC2CC2c2ccccc2)CC1
pIC50 (second compound 0.1 µM): 7.83
pIC50 (second compound 0.316 µM): 7.86
pIC50 (second compound 1 µM): 7.84
pIC50 (second compound 3.16 µM): 7.73
pIC50 (second compound 10 µM): 7.94
viability, T/C (second compound 0.1 µM, first compound 0.000316 µM): 78.7%
viability, T/C (second compound 0.1 µM, first compound 0.001 µM): 91.5%
viability, T/C [21]: 79%
viability, T/C [22]: 57.6%
viability, T/C [1]: 31.9%
viability, T/C [2]: 9.52%
viability, T/C (second compound 0.316 µM, first compound 0.000316 µM): 91.4%
viability, T/C (second compound 0.316 µM, first compound 0.001 µM): 82.2%
viability, T/C [23]: 81.8%
viability, T/C [24]: 55%
viability, T/C [5]: 32.5%
viability, T/C [6]: 13.3%
viability, T/C (second compound 1 µM, first compound 0.000316 µM): 79%
viability, T/C (second compound 1 µM, first compound 0.001 µM): 81.3%
viability, T/C [25]: 72.2%
viability, T/C [26]: 58%
viability, T/C [9]: 32.8%
viability, T/C [10]: 10.1%
viability, T/C (second compound 3.16 µM, first compound 0.000316 µM): 72.5%
viability, T/C (second compound 3.16 µM, first compound 0.001 µM): 89.8%
viability, T/C [27]: 73.9%
viability, T/C [28]: 63.8%
viability, T/C [13]: 38.5%
viability, T/C [14]: 10%
viability, T/C (second compound 10 µM, first compound 0.000316 µM): 64.4%
viability, T/C (second compound 10 µM, first compound 0.001 µM): 67.1%
viability, T/C [29]: 64.8%
viability, T/C [30]: 51.8%
viability, T/C [17]: 29.2%
viability, T/C [18]: 7.41%

COc1cc(C2c3cc4c(cc3C(OC3OC5COC(C)OC5C(O)C3O)C3COC(=O)C23)OCO4)cc(OC)c1O (stereo not given) + NC1CCC(NC2CC2c2ccccc2)CC1
pIC50 (second compound 0.1 µM): 6.32
pIC50 (second compound 0.316 µM): 6.35
pIC50 (second compound 1 µM): 6.25
pIC50 (second compound 3.16 µM): 6.30
pIC50 (second compound 10 µM): 6.48
viability, T/C [31]: 86.7%
viability, T/C [32]: 84.7%
viability, T/C [33]: 68.6%
viability, T/C [34]: 55.5%
viability, T/C (second compound 0.1 µM, first compound 0.949 µM): 42.3%
viability, T/C (second compound 0.1 µM, first compound 3 µM): 26.2%
viability, T/C [35]: 107%
viability, T/C [36]: 84.7%
viability, T/C [37]: 75.3%
viability, T/C [38]: 58.6%
viability, T/C (second compound 0.316 µM, first compound 0.949 µM): 36.1%
viability, T/C (second compound 0.316 µM, first compound 3 µM): 23.9%
viability, T/C [39]: 76.8%
viability, T/C [40]: 76.2%
viability, T/C [41]: 68.3%
viability, T/C [42]: 58.8%
viability, T/C (second compound 1 µM, first compound 0.949 µM): 42.6%
viability, T/C (second compound 1 µM, first compound 3 µM): 19.2%
viability, T/C [43]: 88.6%
viability, T/C [44]: 66.5%
viability, T/C [45]: 74.9%
viability, T/C [46]: 53.5%
viability, T/C (second compound 3.16 µM, first compound 0.949 µM): 45.8%
viability, T/C (second compound 3.16 µM, first compound 3 µM): 23.4%
viability, T/C [47]: 71.3%
viability, T/C [48]: 68.4%
viability, T/C [49]: 68.7%
viability, T/C [50]: 48.3%
viability, T/C (second compound 10 µM, first compound 0.949 µM): 38.8%
viability, T/C (second compound 10 µM, first compound 3 µM): 28.4%

Nc1ccn(C2OC(CO)C(O)C2(F)F)c(=O)n1 (stereo not given) + NC1CCC(NC2CC2c2ccccc2)CC1
pIC50 (second compound 0.1 µM): 8.61
pIC50 (second compound 0.316 µM): 8.59
pIC50 (second compound 1 µM): 8.63
pIC50 (second compound 3.16 µM): 8.62
pIC50 (second compound 10 µM): 8.70
viability, T/C (second compound 0.1 µM, first compound 0.000949 µM): 75.4%
viability, T/C (second compound 0.1 µM, first compound 0.003 µM): 44.4%
viability, T/C [31]: 43.3%
viability, T/C [32]: 39.6%
viability, T/C [33]: 40.3%
viability, T/C [34]: 36.5%
viability, T/C (second compound 0.316 µM, first compound 0.000949 µM): 76.9%
viability, T/C (second compound 0.316 µM, first compound 0.003 µM): 45.8%
viability, T/C [35]: 33.2%
viability, T/C [36]: 36%
viability, T/C [37]: 34.5%
viability, T/C [38]: 34.1%
viability, T/C (second compound 1 µM, first compound 0.000949 µM): 65.5%
viability, T/C (second compound 1 µM, first compound 0.003 µM): 48.3%
viability, T/C [39]: 33.5%
viability, T/C [40]: 42.7%
viability, T/C [41]: 40.5%
viability, T/C [42]: 37.8%
viability, T/C (second compound 3.16 µM, first compound 0.000949 µM): 63%
viability, T/C (second compound 3.16 µM, first compound 0.003 µM): 46.3%
viability, T/C [43]: 41.5%
viability, T/C [44]: 42.8%
viability, T/C [45]: 40.7%
viability, T/C [46]: 36.1%
viability, T/C (second compound 10 µM, first compound 0.000949 µM): 61.1%
viability, T/C (second compound 10 µM, first compound 0.003 µM): 44.9%
viability, T/C [47]: 36.8%
viability, T/C [48]: 42.2%
viability, T/C [49]: 38.3%
viability, T/C [50]: 42.7%

Nc1ncn(C2CC(O)C(CO)O2)c(=O)n1 (stereo not given) + NC1CCC(NC2CC2c2ccccc2)CC1
pIC50 (second compound 0.1 µM): < 6.00
pIC50 (second compound 0.316 µM): < 6.00
pIC50 (second compound 1 µM): < 6.00
pIC50 (second compound 3.16 µM): < 6.00
pIC50 (second compound 10 µM): < 6.00
viability, T/C [21]: 96%
viability, T/C [22]: 98%
viability, T/C [1]: 87.2%
viability, T/C [2]: 80%
viability, T/C [3]: 79.3%
viability, T/C [4]: 77.2%
viability, T/C [23]: 87.8%
viability, T/C [24]: 90.2%
viability, T/C [5]: 84%
viability, T/C [6]: 82.2%
viability, T/C [7]: 79.1%
viability, T/C [8]: 77.7%
viability, T/C [25]: 96.5%
viability, T/C [26]: 84.3%
viability, T/C [9]: 89.5%
viability, T/C [10]: 75.2%
viability, T/C [11]: 71.8%
viability, T/C [12]: 76.8%
viability, T/C [27]: 88.9%
viability, T/C [28]: 84.5%
viability, T/C [13]: 82.7%
viability, T/C [14]: 67.2%
viability, T/C [15]: 80.5%
viability, T/C [16]: 76.7%
viability, T/C [29]: 73.8%
viability, T/C [30]: 82.5%
viability, T/C [17]: 76.4%
viability, T/C [18]: 70.8%
viability, T/C [19]: 65.9%
viability, T/C [20]: 64.7%
